Data reported in PubChem BioAssay AID1963830 (Molecular Pharmacology Branch, DTP, NCI, 2024).

Tested on: 922993-354-T-J3-PDC complex spheroid viability
Assay: Anticancer human tumor 922993-354-T-J3-PDC patient-derived endometrial carcinoma cell line growth inhibition [POLQ]
Conditions: for IC50: curve of first compound; for viability, T/C: stronger effect = lower value
Method: Multicellular complex tumor spheroid response to Polymerase (POL) inhibitors (novobiocin, ART-558, RP6685) in combination with a variety of drugs and investigational agents in selected tumor cell lines
The POL inhibitors (novobiocin, ART-558, and RP6685) were evaluated both individually and in combination with standard of care and investigational anticancer small molecules within a complex spheroid model of solid tumors. . Complex spheroids include a stromal component modeled by human endothelial cells (HUVEC) and fibroblasts modeled by human mesenchymal stem cells (MSCs). The concentration ranges selected for each drug and investigational agent were based upon clinically achievable concentrations if the clinical Cmax of the agent was known.
Compounds. The drugs and investigational agents: novobiocin (NSC847541), ART-558 (NSC835418), RP-6685 (NSC848927), peposertib (NSC802822), ceralasertib (NSC780249), elimusertib (NSC800525), camonsertib (NSC841442), AZD-1390 (NSC803789), olaparib (NSC753686), talazoparib (NSC767125), rucaparib (NSC756644), sotorasib (NSC818433), MRTX-1133 (NSC836407), SN-38 (NSC673596), topotecan (NSC609699), epotoside (NSC141540), doxorubicin (NSC123127), gemcitabine (NSC613327), 5-fluorouracil (NSC19893), paclitaxel (NSC125973), vemurafenib (NSC761431), MSA-2 (NSC828583), SN-011 (NSC837082), adavosertib (NSC754352), prexasertib (NSC758257), carboplatin (NSC241240) and oxaliplatin (NSC266046), were obtained from the National Cancer Institute (NCI) Developmental Therapeutics Program Chemical Repository (21). The FDA-approved anticancer drug set is available from the Developmental Therapeutics Program at https://dtp.cancer.gov/organization/dscb/obtaining/. […] The stock solutions were prepared in dimethyl sulfoxide (DMSO, Sigma-Aldrich, St. Louis, MO, cat. D2650), except for the platinum compounds which were prepared in saline (Quality Biological, Gaithersburg, MD, cat. 114-055-101), at 800-fold the tested concentration and stored at -70 degrees C prior to their use. All drugs and investigational agents were tested over a range starting from a high concentration at or near the clinical Cmax and decreasing in half-log increments. If the clinical Cmax for an agent had not been determined, the highest concentration tested was 10 microM, except for SN-38, which was tested at a high concentration of 1 microM.
Cell Culture. All cells were maintained in an incubator at 37 degrees C and 5% CO2 with 95% humidity. The PDC lines were cultured according to standard operating procedures established by the NCI PDMR (https://pdmr.cancer.gov). Table 3 of the manuscript, lists the cell lines along with the number of the three cell types plated to form the mct-spheroids and media for tumor cell growth. After thawing, all PDC lines, except 997537-175-T-J1-PDC and 415267-285-R-J2-PDC, were cultured in Matrigel-coated flasks prepared with a working solution of 1X Ham's F-12 nutrient mix, without supplementation (Thermo Fisher Scientific, cat. 11765054), 100 U/mL penicillin-streptomycin (Thermo Fisher Scientific, cat. 15140122), and 2.5% Matrigel (Corning Inc., Corning, NY, cat. 354248) for the first three passages. The two PDC lines 997537-175-T-J1-PDC and 415267-285-R-J2-PDC were cultured on uncoated flasks. The 857933-349-R-J2-PDC line was cultured in 6C/Colon 1B media containing advanced DMEM/F-12 (Thermo Fisher Scientific, cat. 12634028), 10 mM HEPES (Thermo Fisher Scientific, cat. 15630080), 1X GlutaMAX supplement (Thermo Fisher Scientific, cat. 35050061), 0.1 mg/mL primocin (InvivoGen, San Diego, CA, cat. ant-pm-2), 10% defined fetal bovine serum, heat inactivated (HyClone Laboratories Inc., Logan, UT, cat. SH30070.03HI), 50% L-WRN conditioned media (ATCC, cat. CRL-3276), 1.25 mM N-Acetyl-L-cysteine (Sigma-Aldrich, cat. A9165), 10 mM nicotinamide (Sigma-Aldrich, cat. N0636), 1X B-27 supplement (Thermo Fisher Scientific, cat. 17504044), 1X N-2 supplement (Thermo Fisher Scientific, cat. […]

[1] = second compound 0.0316 µM, first compound 0.0316 µM
[2] = second compound 0.0316 µM, first compound 0.1 µM
[3] = second compound 0.1 µM, first compound 0.0316 µM
[4] = second compound 0.1 µM, first compound 0.1 µM
[5] = second compound 0.316 µM, first compound 0.0316 µM
[6] = second compound 0.316 µM, first compound 0.1 µM
[7] = second compound 1 µM, first compound 0.0316 µM
[8] = second compound 1 µM, first compound 0.1 µM
[9] = second compound 3.16 µM, first compound 0.0316 µM
[10] = second compound 3.16 µM, first compound 0.1 µM
[11] = second compound 10 µM, first compound 0.0316 µM
[12] = second compound 10 µM, first compound 0.1 µM
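Note: spheroids exposed to the agents for one week.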
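Throughout, for viability, T/C: 100% = DMSO vehicle control wells.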

CCCS(=O)(=O)Nc1ccc(F)c(C(=O)c2c[nH]c3ncc(-c4ccc(Cl)cc4)cc23)c1F + COC1C(OC(N)=O)C(O)C(Oc2ccc3c(O)c(NC(=O)c4ccc(O)c(CC=C(C)C)c4)c(=O)oc3c2C)OC1(C)C
IC50 (second compound 0.0316 µM): > 10000 nM
IC50 (second compound 0.1 µM): > 10000 nM
IC50 (second compound 0.316 µM): > 10000 nM
IC50 (second compound 1 µM): > 10000 nM
IC50 (second compound 3.16 µM): > 10000 nM
IC50 (second compound 10 µM): > 10000 nM
viability, T/C [1]: 98.7%
viability, T/C [2]: 97%
viability, T/C (second compound 0.0316 µM, first compound 0.316 µM): 97.3%
viability, T/C (second compound 0.0316 µM, first compound 1 µM): 110%
viability, T/C (second compound 0.0316 µM, first compound 3.16 µM): 106%
viability, T/C (second compound 0.0316 µM, first compound 10 µM): 68.6%
viability, T/C [3]: 102%
viability, T/C [4]: 103%
viability, T/C (second compound 0.1 µM, first compound 0.316 µM): 103%
viability, T/C (second compound 0.1 µM, first compound 1 µM): 110%
viability, T/C (second compound 0.1 µM, first compound 3.16 µM): 102%
viability, T/C (second compound 0.1 µM, first compound 10 µM): 83.6%
viability, T/C [5]: 112%
viability, T/C [6]: 102%
viability, T/C (second compound 0.316 µM, first compound 0.316 µM): 107%
viability, T/C (second compound 0.316 µM, first compound 1 µM): 109%
viability, T/C (second compound 0.316 µM, first compound 3.16 µM): 93%
viability, T/C (second compound 0.316 µM, first compound 10 µM): 67.1%
viability, T/C [7]: 93.6%
viability, T/C [8]: 103%
viability, T/C (second compound 1 µM, first compound 0.316 µM): 101%
viability, T/C (second compound 1 µM, first compound 1 µM): 103%
viability, T/C (second compound 1 µM, first compound 3.16 µM): 90.5%
viability, T/C (second compound 1 µM, first compound 10 µM): 86.8%
viability, T/C [9]: 94.7%
viability, T/C [10]: 103%
viability, T/C (second compound 3.16 µM, first compound 0.316 µM): 95.9%
viability, T/C (second compound 3.16 µM, first compound 1 µM): 94.1%
viability, T/C (second compound 3.16 µM, first compound 3.16 µM): 101%
viability, T/C (second compound 3.16 µM, first compound 10 µM): 73.8%
viability, T/C [11]: 90%
viability, T/C [12]: 84.3%
viability, T/C (second compound 10 µM, first compound 0.316 µM): 79.8%
viability, T/C (second compound 10 µM, first compound 1 µM): 85.1%
viability, T/C (second compound 10 µM, first compound 3.16 µM): 90.4%
viability, T/C (second compound 10 µM, first compound 10 µM): 59.5%

CC[C@@]1(O)C(=O)OCc2c1cc1n(c2=O)Cc2cc3c(CN(C)C)c(O)ccc3nc2-1 + Nc1ccc(C#CCN(C(=O)Cc2ncc(C(F)(F)F)cc2C(F)(F)F)c2ccc(F)cc2)nn1
IC50 (second compound 0.0316 µM): > 100 nM
IC50 (second compound 0.1 µM): > 100 nM
IC50 (second compound 0.316 µM): > 100 nM
IC50 (second compound 1 µM): > 100 nM
IC50 (second compound 3.16 µM): > 100 nM
IC50 (second compound 10 µM): 54.7 nM
viability, T/C (second compound 0.0316 µM, first compound 0.000316 µM): 103%
viability, T/C (second compound 0.0316 µM, first compound 0.001 µM): 105%
viability, T/C (second compound 0.0316 µM, first compound 0.00316 µM): 99.4%
viability, T/C (second compound 0.0316 µM, first compound 0.01 µM): 101%
viability, T/C [1]: 100%
viability, T/C [2]: 89.5%
viability, T/C (second compound 0.1 µM, first compound 0.000316 µM): 102%
viability, T/C (second compound 0.1 µM, first compound 0.001 µM): 105%
viability, T/C (second compound 0.1 µM, first compound 0.00316 µM): 100%
viability, T/C (second compound 0.1 µM, first compound 0.01 µM): 102%
viability, T/C [3]: 102%
viability, T/C [4]: 87.2%
viability, T/C (second compound 0.316 µM, first compound 0.000316 µM): 105%
viability, T/C (second compound 0.316 µM, first compound 0.001 µM): 98.1%
viability, T/C (second compound 0.316 µM, first compound 0.00316 µM): 103%
viability, T/C (second compound 0.316 µM, first compound 0.01 µM): 98.9%
viability, T/C [5]: 103%
viability, T/C [6]: 81.1%
viability, T/C (second compound 1 µM, first compound 0.000316 µM): 105%
viability, T/C (second compound 1 µM, first compound 0.001 µM): 103%
viability, T/C (second compound 1 µM, first compound 0.00316 µM): 100%
viability, T/C (second compound 1 µM, first compound 0.01 µM): 99.2%
viability, T/C [7]: 96%
viability, T/C [8]: 82.2%
viability, T/C (second compound 3.16 µM, first compound 0.000316 µM): 101%
viability, T/C (second compound 3.16 µM, first compound 0.001 µM): 102%
viability, T/C (second compound 3.16 µM, first compound 0.00316 µM): 103%
viability, T/C (second compound 3.16 µM, first compound 0.01 µM): 94.5%
viability, T/C [9]: 92.9%
viability, T/C [10]: 72.9%
viability, T/C (second compound 10 µM, first compound 0.000316 µM): 100%
viability, T/C (second compound 10 µM, first compound 0.001 µM): 91.3%
viability, T/C (second compound 10 µM, first compound 0.00316 µM): 97%
viability, T/C (second compound 10 µM, first compound 0.01 µM): 92.9%
viability, T/C [11]: 71.8%
viability, T/C [12]: 25.9%
